Assay results published in patent US10294202B2, “Pyrrolidinones as herbicides” (FMC Corporation, priority 2013, dated 2019).

Columns and labels:
ryegrass, Italian = assay: Test A pre-/postemergence herbicide test; type: in vivo, Lolium multiflorum; conditions: for Plant response rating, Ryegrass, Italian: 0 to 100 scale
In short: (§1)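 Visual injury ratings, 0 = no effect, 100 = complete control, taken ~10 days after treatment against untreated greenhouse controls. Preemergence: directed soil spray onto seeded loam/sand pots. Postemergence: spray onto plants at one- to two-leaf stage, 2–10 cm tall.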

pigweed = assay: Test A pre-/postemergence herbicide test; type: in vivo, Amaranthus retroflexus; conditions: for Plant response rating, Pigweed: 0 to 100 scale
In short: as §1

ducksalad = assay: Test B flooded paddy test; type: in vivo, Heteranthera limosa; conditions: 500 g ai/ha, Flood; scale of 0 to 100 where 0 is no effect and 100 is complete control
In short: (§2)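 Treatment was made at the 2-leaf stage by dosing the standing floodwater, kept 3 cm above soil level for the whole test. Greenhouse exposure lasted 13 to 15 days. Response is a visual percent rating relative to controls, where a dash indicates no test result.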

rice = assay: Test B flooded paddy test; type: in vivo, Oryza sativa; conditions: 500 g ai/ha, Flood; scale of 0 to 100 where 0 is no effect and 100 is complete control
In short: as §2

corn = assay: Test A pre-/postemergence herbicide test; type: in vivo, Zea mays; conditions: Postemergence; for Plant response rating, Corn: 125 g ai/ha, 0 to 100 scale, 0 no effect, 100 complete control; for Corn plant response rating (0 to 100 scale, 0 is no effect, 100 is complete control): 500 g ai/ha
In short: as §1

ragweed = assay: Test A pre-/postemergence herbicide test; type: in vivo, Ambrosia elatior; conditions: for Plant response rating, Ragweed: 0 to 100 scale
In short: as §1

giant foxtail = assay: Test A pre-/postemergence herbicide test; type: in vivo, Setaria faberii; conditions: for Plant response rating, Foxtail, Giant: 0 to 100 scale
In short: as §1

barnyardgrass [1] = assay: Test A pre-/postemergence herbicide test; type: in vivo, Echinochloa crus-galli
In short: as §1

wheat = assay: Test A pre-/postemergence herbicide test; type: in vivo, Triticum aestivum; conditions: Postemergence; for Plant response rating, Wheat: 125 g ai/ha, 0 to 100 scale, 0 no effect, 100 complete control; for Wheat plant response rating (0 to 100 scale, 0 is no effect, 100 is complete control): 500 g ai/ha
In short: as §1

galium = assay: Test A postemergence herbicide test; type: in vivo, Galium aparine; conditions: for Plant response rating, Galium: 125 g ai/ha, 0 to 100 scale, 0 no effect, 100 complete control; for Galium plant response rating (0 to 100 scale, 0 is no effect, 100 is complete control): 500 g ai/ha
In short: (§3)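 Blackgrass and galium grown in pots of loam soil–sand blend, treated postemergence at 2–10 cm height, one- to two-leaf stage. Plants kept in greenhouse ~10 days, then visually rated for injury against untreated controls on a 0–100 scale (0 no effect, 100 complete control).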

blackgrass = assay: Test A postemergence herbicide test; type: in vivo, Alopecurus myosuroides; conditions: for Plant response rating, Blackgrass: 125 g ai/ha, 0 to 100 scale, 0 no effect, 100 complete control; for Blackgrass plant response rating (0 to 100 scale, 0 is no effect, 100 is complete control): 500 g ai/ha
In short: as §3

kochia = assay: Test A pre-/postemergence herbicide test; type: in vivo, Kochia scoparia; conditions: for Plant response rating, Kochia: 0 to 100 scale
In short: as §1

sedge, umbrella = assay: Test B flooded paddy test; type: in vivo, Cyperus difformis; conditions: 500 g ai/ha, Flood; scale of 0 to 100 where 0 is no effect and 100 is complete control
In short: as §2

barnyardgrass [2] = assay: Test B flooded paddy test; type: in vivo, Echinochloa crus-galli; conditions: 500 g ai/ha, Flood; scale of 0 to 100 where 0 is no effect and 100 is complete control
In short: as §2

[3] = 125 g ai/ha, visual rating, 0 no effect, 100 complete control, approximately 10 days, preemergence
[4] = Postemergence, 125 g ai/ha, 0 no effect, 100 complete control
[5] = 125 g ai/ha, visual rating, 0 to 100 scale, 0 no effect, 100 complete control, approximately 10 days, preemergence
[6] = Postemergence, 125 g ai/ha, 0 to 100 scale, 0 no effect, 100 complete control
[7] = preemergence, 500 g ai/ha, 0 to 100 scale (0 no effect, 100 complete control)
[8] = preemergence, 500 g ai/ha, 0 is no effect and 100 is complete control

Structure (SMILES) | Plant response rating, Ryegrass, Italian (ryegrass, Italian; [3]) | Plant response rating, Ryegrass, Italian (ryegrass, Italian; [4]) | Ryegrass, Italian plant response rating (0 to 100 scale, 0 is no effect, 100 is complete control) (ryegrass, Italian; Postemergence, 500 g ai/ha) | Plant response rating, Pigweed (pigweed; [3]) | Plant response rating, Pigweed (pigweed; [4]) | Pigweed plant response rating (0 to 100 scale, 0 is no effect, 100 is complete control) (pigweed; Postemergence, 500 g ai/ha) | Plant response rating, Ducksalad (ducksalad) | Plant response rating, Rice (rice) | Plant response rating, Corn (corn) | Corn plant response rating (0 to 100 scale, 0 is no effect, 100 is complete control) (corn) | Plant response rating, Ragweed (ragweed; [3]) | Plant response rating, Ragweed (ragweed; [4]) | Ragweed plant response rating (0 to 100 scale, 0 is no effect, 100 is complete control) (ragweed; Postemergence, 500 g ai/ha) | Plant response rating, Foxtail, Giant (giant foxtail; [3]) | Plant response rating, Foxtail, Giant (giant foxtail; [4]) | Foxtail, Giant plant response rating (0 to 100 scale, 0 is no effect, 100 is complete control) (giant foxtail; Postemergence, 500 g ai/ha) | Plant response rating, Foxtail, Giant (giant foxtail; preemergence, 500 g ai/ha) | Plant response rating, Barnyardgrass (barnyardgrass [1]; [5]) | Plant response rating, Barnyardgrass (barnyardgrass [1]; [6]) | Barnyardgrass plant response rating (0 to 100 scale, 0 is no effect, 100 is complete control) (barnyardgrass [1]; Postemergence, 500 g ai/ha) | further results
Cc1ccc(C2CNC(=O)C2C(=O)Nc2ccccc2F)cc1 (racemic) [Compound 149] | 20 | 10 | 50 | 0 | 0 | 0 | 100 | 0 | 10 | 70 | 60 | 30 | 40 | 70 | 40 | 70 | 90 | 90 | 70 | 80 | Plant response rating, Ryegrass, Italian (ryegrass, Italian; preemergence, 500 g ai/ha): 70; Plant response rating, Pigweed (pigweed; preemergence, 500 g ai/ha): 0; Plant response rating, Ragweed (ragweed; preemergence, 500 g ai/ha): 80; Plant response rating, Barnyardgrass (barnyardgrass [1]; [7]): 90; Plant response rating, Wheat (wheat): 0; Wheat plant response rating (0 to 100 scale, 0 is no effect, 100 is complete control) (wheat): 20; Plant response rating, Galium (galium): 50; Galium plant response rating (0 to 100 scale, 0 is no effect, 100 is complete control) (galium): 60; Plant response rating, Blackgrass (blackgrass): 30; Blackgrass plant response rating (0 to 100 scale, 0 is no effect, 100 is complete control) (blackgrass): 40; Plant response rating, Kochia (kochia; [3]): 10; Plant response rating, Kochia (kochia; [4]): 50; Kochia plant response rating (0 to 100 scale, 0 is no effect, 100 is complete control) (kochia; Postemergence, 500 g ai/ha): 60; Plant response rating, Kochia (kochia; preemergence, 500 g ai/ha): 70; Plant response rating, Sedge, Umbrella (sedge, umbrella): 0; Plant response rating, Barnyardgrass (barnyardgrass [2]): 70
Cc1ccc(C2CNC(=O)C2C(=O)Nc2cccc(F)c2F)cc1 (racemic) [Compound 151] | 10 | 30 | 50 | 0 | 50 | 60 | 100 | 0 | 0 | 50 | 90 | 60 | 70 | 80 | 60 | 70 | 90 | 90 | 80 | 90 | Plant response rating, Ryegrass, Italian (ryegrass, Italian; preemergence, 500 g ai/ha): 60; Plant response rating, Pigweed (pigweed; preemergence, 500 g ai/ha): 0; Plant response rating, Ragweed (ragweed; preemergence, 500 g ai/ha): 90; Plant response rating, Barnyardgrass (barnyardgrass [1]; [7]): 90; Plant response rating, Wheat (wheat): 0; Wheat plant response rating (0 to 100 scale, 0 is no effect, 100 is complete control) (wheat): 60; Plant response rating, Galium (galium): 60; Galium plant response rating (0 to 100 scale, 0 is no effect, 100 is complete control) (galium): 70; Plant response rating, Blackgrass (blackgrass): 40; Blackgrass plant response rating (0 to 100 scale, 0 is no effect, 100 is complete control) (blackgrass): 70; Plant response rating, Kochia (kochia; [3]): 90; Plant response rating, Kochia (kochia; [4]): 70; Kochia plant response rating (0 to 100 scale, 0 is no effect, 100 is complete control) (kochia; Postemergence, 500 g ai/ha): 80; Plant response rating, Kochia (kochia; preemergence, 500 g ai/ha): 90; Plant response rating, Sedge, Umbrella (sedge, umbrella): 0; Plant response rating, Barnyardgrass (barnyardgrass [2]): 90
Cc1ccc(C2CNC(=O)C2C(=O)Nc2ccccc2Cl)cc1 (racemic) [Compound 152] | 0 | 10 | 50 | 0 | 0 | 20 | 100 | 15 | 0 | 0 | 50 | 40 | 50 | 70 | 50 | 60 | 90 | 90 | 70 | 80 | Plant response rating, Ryegrass, Italian (ryegrass, Italian; [8]): 30; Plant response rating, Pigweed (pigweed; [8]): 10; Plant response rating, Ragweed (ragweed; [8]): 70; Plant response rating, Barnyardgrass (barnyardgrass [1]; [7]): 90; Plant response rating, Wheat (wheat): 0; Wheat plant response rating (0 to 100 scale, 0 is no effect, 100 is complete control) (wheat): 0; Plant response rating, Galium (galium): 60; Galium plant response rating (0 to 100 scale, 0 is no effect, 100 is complete control) (galium): 70; Plant response rating, Blackgrass (blackgrass): 0; Blackgrass plant response rating (0 to 100 scale, 0 is no effect, 100 is complete control) (blackgrass): 50; Plant response rating, Kochia (kochia; [3]): 30; Plant response rating, Kochia (kochia; [4]): 50; Kochia plant response rating (0 to 100 scale, 0 is no effect, 100 is complete control) (kochia; Postemergence, 500 g ai/ha): 60; Plant response rating, Kochia (kochia; [8]): 60; Plant response rating, Sedge, Umbrella (sedge, umbrella): 0; Plant response rating, Barnyardgrass (barnyardgrass [2]): 60
